The values below come from publication PMC3486884 (PLoS Pathogens, 2012).

Data set [1] relates to clathrin-coated vesicles (CCV). The experiment in a line: Acridine orange measurements in clathrin-coated vesicles. The settings on record: AO red fluorescence assay.
Experimental: CCV suspended in assay buffer (10 mM HEPES, pH7, 100 mM KCl, 1 mM EDTA) were incubated with 1 mM ATP, 2 µM AO (Molecular Probes). The ATPase reaction was initiated by adding MgCl2 to 1 mM and fluorescence was determined at 492/540 nm in a plate reader (Tecan, Männedorf, Switzerland) at room temperature after 10 min. BafA1 and samples without MgCl2 were used as controls.
Data set [2] has as its system HRV1A. Kind of data set: Full cycle infectivity assay (virus titer, TCID50). It counts as cell-based, human rhinovirus. The settings on record: full cycle assays; BafA1 (0.5 nM), alone or drug combination.
In a further data set the target is v-ATPase (Bos taurus, UniProt P23956). The experiment in a line: v-ATPase inhibition assay (Pi production in clathrin-coated vesicles). The settings on record: bovine brain clathrin-coated vesicles.
The conditions of data set [3]: nitazoxanide; cited from earlier work.
For data set [4], the system named is HRV1A. Conditions: n=2.
For data set [5], the system named is CVB4. Kind of data set: microbe, parasite or virus in culture. Conditions: Enterovirus B, CVB4, HeLa, read-out: IC50 (CVB4).
The subject of data set [6] is HRV16. The settings on record: HRV16, normalized to DMSO control (1), n=2, Figure S7A.
Data set [7] concerns CVA21. Conditions: CVA21, normalized to DMSO control (1), n=2, Figure S7A.
Data set [8] deals with HRV2. Kind of data set: microbe, parasite or virus in culture. Conditions: Human rhinovirus sp., HRV2, HeLa, read-out: IC50 (HRV2).
Data set [9] relates to CVB4. Conditions: CVB4, normalized to DMSO control (1), n=2, Figure S7A.
Data set [10] has as its system HRV16. The experiment in a line: microbe, parasite or virus in culture. Conditions: Human rhinovirus sp., HRV16, HeLa, read-out: IC50 (HRV16).
Data set [11] has as its system influenza virus (strain A/Puerto Rico/8/34/H1N1 depicted PR8). The experiment in a line: microbe, parasite or virus in culture. Conditions: unidentified influenza virus, A549, read-out: IC50 (PR8).
A further data set concerns CVB3. Conditions: n=2.
Data set [12] relates to HRV1A. The experiment in a line: microbe, parasite or virus in culture. The settings on record: Human rhinovirus sp.
Data set [13] relates to HRV14. Kind of data set: microbe, parasite or virus in culture. Conditions: Human rhinovirus sp., HRV14, HeLa, read-out: IC50 (HRV14).
The test system of data set [14] is HRV14. Conditions: HRV14, normalized to DMSO control (1), n=2, Figure S7A.
Data set [15] concerns HRV2. The settings on record: HRV2, normalized to DMSO control (1), n=2, Figure S7A.
In data set [16] the test system is CVA21. The experiment in a line: microbe, parasite or virus in culture. Conditions: Coxsackievirus, CVA21, HeLa, read-out: IC50 (CVA21).
The next data set relates to hepatitis C virus. The settings on record: cited from earlier work.

Read-outs that look alike come from different tables or passages of the source.

In general, pKa refers to the negative logarithm of the acid dissociation constant. A word on the IC50: it is the concentration needed to halve the response being measured. Usually IC90 stands for the point of the concentration-response curve where the effect stands at 90%.

Experimental for v-ATPase: Cow brain CCV were prepared as described [59], diluted in assay buffer (200 mM sucrose, 50 mM KCl, 10 mM HEPES pH7, 1 mM EDTA, 5 µM nigericin, 10 µg/ml oligomycin, 1 mM vanadate) and incubated with the respective compounds at 4°C for 30 min. ATP (10 µl 2 mM ATP and 40 mM MgCl2) were added and the samples incubated at 37°C for 15 min. Production of inorganic phosphate (Pi) was measured with the Sensolyte MG phosphate assay kit according to the manufacturers protocols (AnaSpec).

Consider `CO/C1=C\C(C)=C\[C@@H](C)[C@@H](O)[C@@H](C)C/C(C)=C/C=C/[C@H](OC)[C@@H]([C@@H](C)[C@@H](O)[C@H](C)[C@@]2(O)C[C@@H](O)[C@H](C)[C@@H](C(C)C)O2)OC1=O` [BafA1, bafilomycin A1], for which the “pH of isolated CCV” value in data set [1] is “neutralized the pH of CCV in a dose-dependent manner”. For the same compound, the “decrease of virus titers” value in the data set with HRV1A [2] is given as “about five-fold”. In addition, the “v-ATPase activity (ATP hydrolysis, production of Pi)” value on v-ATPase is given as “completely blocked the production of Pi”.

`CC(=O)Oc1ccccc1C(=O)Nc1ncc([N+](=O)[O-])s1` [Nitazoxanide, nitazoxanide]: the pKa in data set [3] is 5.8.

For the compound `O=C(Nc1ccc([N+](=O)[O-])cc1Cl)c1ccccc1O` [TVB-1332], the relative infection with HRV1A [4] (0.1 µM) is 0.99; in the data set on HRV1A [4] (0.3 µM), 1.01; in the data set on HRV1A [4] (0.9 µM), 0.97; with HRV1A [4] (2.8 µM), 0.61; with HRV1A [4] (8.3 µM) it was 0.04; in the data set with HRV1A [4] (25.0 µM), 0.02. Besides, the relative infection turned out to be 0.98 with HRV16 [6] (0.1 µM); 0.95 in the data set on HRV16 [6] (0.3 µM); 0.94 with HRV16 [6] (0.9 µM); 0.66 in the data set with HRV16 [6] (2.8 µM); 0.14 in the data set on HRV16 [6] (8.3 µM); 0.07 in the data set on HRV16 [6] (25.0 µM). The relative infection in the data set on CVA21 [7] (0.1 µM) came out at 0.91; with CVA21 [7] (0.3 µM), 0.95; in the data set on CVA21 [7] (0.9 µM) it was 0.93; in the data set on CVA21 [7] (2.8 µM) it was 1.02; in the data set on CVA21 [7] (8.3 µM), 0.81; with CVA21 [7] (25.0 µM), 0.20. Further, the relative infection in the data set on CVB4 [9] (0.1 µM) was 1.10; in the data set on CVB4 [9] (0.3 µM), 1.16; in the data set on CVB4 [9] (0.9 µM), 1.25; in the data set with CVB4 [9] (2.8 µM), 0.86; in the data set with CVB4 [9] (8.3 µM), 0.34; in the data set on CVB4 [9] (25.0 µM) it was 0.33. Also, the relative infection with CVB3 (0.1 µM) is reported as 1.01; in the data set on CVB3 (2.8 µM), 1.08; with CVB3 (CVB3, 0.3 µM, normalized to DMSO control (1), Figure S7A), 1.11; with CVB3 (CVB3, 0.9 µM, normalized to DMSO control (1), Figure S7A), 1.07; with CVB3 (CVB3, 8.3 µM, normalized to DMSO control (1), Figure S7A) it was 1.05; in the data set with CVB3 (CVB3, 25.0 µM, normalized to DMSO control (1), Figure S7A) it was 1.15. Also, the relative infection with HRV14 [14] (0.1 µM) was found to be 0.91; in the data set on HRV14 [14] (0.3 µM), 0.96; in the data set with HRV14 [14] (0.9 µM), 0.82; in the data set on HRV14 [14] (2.8 µM), 0.47; with HRV14 [14] (8.3 µM) it was 0.09; in the data set on HRV14 [14] (25.0 µM), 0.05. Further, the relative infection in the data set with HRV2 [15] (0.1 µM) is 0.94; with HRV2 [15] (0.3 µM) it was 0.97; in the data set on HRV2 [15] (0.9 µM), 0.95; in the data set with HRV2 [15] (2.8 µM), 0.38; in the data set on HRV2 [15] (8.3 µM), 0.01; in the data set on HRV2 [15] (25.0 µM), 0.01. For the same compound, the half-maximal inhibitory concentration (IC50) in the data set with CVB4 [5] was 8.01 µM; in the data set with HRV2 [8] it was 2.36 µM; with HRV16 [10] it was 3.74 µM; in [11] it was about 2.7 µM; with HRV1A [12] (HeLa, read-out: IC50 (HRV1A)) it was 3.19 µM; in the data set on HRV14 [13], 2.47 µM. The IC50 with CVA21 [16] came out at 14.7 µM. For the same compound, the activity at 0.03 µM in the data set on HRV1A [12] (M-HeLa, 7 h, read-out: HRV1A infection (dsRNA), 0.03 µM) stood at 108%. Moreover, the activity at 0.1 µM in the data set with HRV1A [12] (M-HeLa, 7 h, read-out: HRV1A infection (dsRNA), 0.10 µM) is 98%. Also, the activity at 0.31 µM in the data set with HRV1A [12] (M-HeLa, 7 h, read-out: HRV1A infection (dsRNA), 0.31 µM) turned out to be 96%. Further, the activity at 0.93 µM in the data set with HRV1A [12] (M-HeLa, 7 h, read-out: HRV1A infection (dsRNA), 0.93 µM) came out at 88%. For the same compound, the activity at 2.78 µM in the data set with HRV1A [12] (M-HeLa, 7 h, read-out: HRV1A infection (dsRNA), 2.78 µM) stood at 44%. The activity at 8.33 µM in the data set with HRV1A [12] (M-HeLa, 7 h, read-out: HRV1A infection (dsRNA), 8.33 µM) was determined as 5%. Further, the activity at 25 µM in the data set on HRV1A [12] (M-HeLa, 7 h, read-out: HRV1A infection (dsRNA), 25.00 µM) was 4%.

With `CCN(CC)CCCC(C)Nc1ccnc2cc(Cl)ccc12` (stereo not drawn) [chloroquine], the IC90 in the data set on hepatitis C virus was 20 µM.

As to `C/C=C/[C@H]1O[C@@](O)([C@@H](C)[C@H](O)[C@H](C)[C@H]2OC(=O)/C(OC)=C/C(C)=C/[C@@H](C)[C@@H](O)[C@@H](CC)[C@@H](O)[C@H](C)C/C(C)=C/C=C/[C@@H]2OC)C[C@@H](O[C@H]2C[C@@H](O)[C@H](OC(N)=O)[C@@H](C)O2)[C@@H]1C` [concanamycin A], the “pH of isolated CCV” value in data set [1] was “neutralized the pH of CCV in a dose-dependent manner”. Further, at v-ATPase, the “v-ATPase activity (ATP hydrolysis, production of Pi)” value was “completely blocked the production of Pi”.
